Laboratory results taken from paper PMC11637191, “The pH-dependence of efflux ratios determined with bidirectional transport assays across cellular monolayers” (International Journal of Pharmaceutics: X, 2024).
Values joined by “and” are separate entries in the source; they are usually repeats but may differ in a detail not shown here. Identical values can stand only once. Like-named read-outs stand apart in the source and are kept apart here.

Tests used:
Caco-2 cells = assay: Model fits of pH-gradient Caco-2 data of Neuhoff et al. (2003)
Source text: Error bars represent standard deviation.
Fit Parameters A: Neutral-Neutral B: Ionic-Ionic C: Neutral-Ionic […]
(§1) X Measurement of paracellular transport […]
(§2) assess its relative contribution to overall flux, it is necessary to quantify paracellular transport in some way. An approximation of paracellular transport can be mathematically calculated as desc ribed in […]
(§3) and cell type can influence and complicate the predictions, leading to uncertainties. H owever, it can also be experimentally measured provided that it can be assured that the P app would be dominated by the contribution of P para . […]
compounds. In order to ensure paracellular dominance, 2 µM elacridar was used to inhibit potential P-gp facilitated efflux, and the transport buffer was set to a pH that would severely restrict the neutral

in vitro = conditions: dog
P-gp (MDR1) [1] = assay: in vitro; conditions: dog
MDCK-MDR1 cells [2] = conditions: pH 7.4 iso-method, cited from earlier work; for Papp, inhibitor: with inhibitor; for Papp, B⟶A: without inhibitor
[3] = Calculation of neutral fraction (fn)
MDCK-MDR1 cells [4] = assay: Comparison of Papp,B-A with and without inhibitor in MDCK-MDR1 cells (own and literature data); conditions: pH 7.4 iso-method
P-gp (MDR1) [5] = assay: as above; conditions: dog, MDCK-MDR1, pH 7.4, with P-gp inhibitor (elacridar 2 µM in this study's P0 assays), Papp, inhibitor, This study; with inhibitor; pH 7.4 iso-method
[6] = Measurement of paracellular transport (Ppara) in MDCK-MDR1 cells with and without P-gp inhibitors; format: in vitro ADME, canine; conditions: dog, + 2 µM elacridar
Source text: In initial fits, we used experimentally obtained values for Ppara , determined by measuring the Papp of the relevant compound at a pH value where paracellular transport was expected to dominate. Since the compounds in this study are P-gp substrates, elacridar was also used to inhibit P-gp. Under these conditions, the measured Papp is expected to be a measure of Ppara . […]
as §1, §2, §3
compounds. In order to ensure paracellular dominance, 2 µM elacridar was used to inhibit potential P-gp facilitated efflux, and the transport buffer was set to a pH that would severely restrict the neutral […]
Table S13: P app values and measured logP para for basic and acidic marker compounds. P app values are the mean of three timepoints per replicate, for a total of three replicates (n = 3) ± standard […]
Compound pH Papp, A⟶B logP para Recovery fn
In light of the uncertainties in predicting P para , it was presumed more apt to measure P para for each compound individually in parallel with the pH dependence experiments. As described in Section 4.3 of the main text, experiments were initially performed for each tested compound with inhibitor and appropriate pH values (similar to those performed for Table S12) in an attempt to ensure the dominance of paracellular transport. These values could then be used as a direct measure for P para for each compound that could be fed to the model for its individual fit. […]
affecting P para and/or the measurement of it, we measured the P app of more commonly-used markers for paracellular transport with and without inhibitor. The transport of these rather hydrophilic compounds is known to be dominated by the paracellular route. Furthermore, for our MDCK- MDR1 […]
efflux is not expected to play a role. As such, the addition of inhibitor in this case is purely to evaluate if the P app changes when it is present.

[7] = basic; ref Advanced Chemistry Development, 2020; cited from earlier work
[8] = Neutral-Neutral assumption, gradient pH method, basolateral pH 7.4, fit of Neuhoff et al. 2003 data
[9] = ref Troutman and Thakker (2003)

Q: Which “Pb,app active (fitted)” value (Caco-2 cells; [8]) does the source give for `C[C@H]1O[C@@H](O[C@H]2[C@@H](O)C[C@H](O[C@H]3[C@@H](O)C[C@H](O[C@H]4CC[C@@]5(C)[C@H](CC[C@@H]6[C@@H]5C[C@@H](O)[C@]5(C)[C@@H](C7=CC(=O)OC7)CC[C@]65O)C4)O[C@@H]3C)O[C@@H]2C)C[C@H](O)[C@@H]1O` [Digoxin] here?
A: 51.6 ×10⁻⁶ cm/s

Q: And the “Ppara (fitted)” value (Caco-2 cells; [8])?
A: 5.22 ×10⁻⁶ cm/s

Q: And the P0 (Caco-2 cells; human, Caco-2)?
A: 2.69-06 cm/s

Q: What about the “Ppgp,app active (fitted)” value (Caco-2 cells; human, Caco-2, pH 7.4) of the same compound?
A: 63.9 ×10⁻⁶ cm/s

Q: And the “Pb active in Caco-2 fit compared with MDCK results (iso-pH method)” value (Caco-2 cells; neutral-neutral fit)?
A: one order of magnitude higher

Q: What about the “logPapp, A⟶B” value (MDCK-II-MDR1 cells; pH 5, iso-pH method) of the same compound?
A: -6.27 P in cm/s

Q: What about the “logPapp, B⟶A” value (MDCK-II-MDR1 cells; pH 5, iso-pH method) of the same compound?
A: -5.21 P in cm/s

Q: And the “logPapp, A⟶B” value (MDCK-II-MDR1 cells; pH 6, iso-pH method)?
A: -6.29 P in cm/s

Q: What about the “logPapp, B⟶A” value (MDCK-II-MDR1 cells; pH 6, iso-pH method) of the same compound?
A: -4.79 P in cm/s

Q: What about the “logPapp, A⟶B” value (MDCK-II-MDR1 cells; pH 7.4, iso-pH method) of the same compound?
A: -6.23 P in cm/s

Q: What about the “logPapp, B⟶A” value (MDCK-II-MDR1 cells; pH 7.4, iso-pH method) of the same compound?
A: -4.75 P in cm/s

Q: What about the “logPapp, A⟶B” value (MDCK-II-MDR1 cells; pH 8, iso-pH method) of the same compound?
A: -6.14 P in cm/s

Q: And the “logPapp, B⟶A” value (MDCK-II-MDR1 cells; pH 8, iso-pH method)?
A: -4.79 P in cm/s

Q: And the “logPapp, A⟶B” value (MDCK-II-MDR1 cells; pH 9, iso-pH method)?
A: -5.72 P in cm/s

Q: And the “logPapp, B⟶A” value (MDCK-II-MDR1 cells; pH 9, iso-pH method)?
A: -5.12 P in cm/s

Q: What about the recovery (in vitro; MDCK-MDR1, pH 5) of the same compound?
A: 71 to 116%

Q: What about the recovery (in vitro; MDCK-MDR1, pH 6) of the same compound?
A: 74 to 88%

Q: And the recovery (in vitro; MDCK-MDR1, pH 7.4)?
A: 73 to 83%

Q: What about the recovery (in vitro; MDCK-MDR1, pH 8) of the same compound?
A: 73 to 76%

Q: And the recovery (in vitro; MDCK-MDR1, pH 9)?
A: 75 to 82%

Q: And the Papp (P-gp (MDR1) [1]; MDCK-MDR1, pH 5)?
A: 0.53 ± 0.15 ×10⁻⁶ cm/s

Q: And the Papp B→A (P-gp (MDR1) [1]; MDCK-MDR1, pH 5)?
A: 6.12 ± 1.9 ×10⁻⁶ cm/s

Q: What about the Papp (P-gp (MDR1) [1]; MDCK-MDR1, pH 6) of the same compound?
A: 0.51 ± 0.12 ×10⁻⁶ cm/s

Q: And the Papp B→A (P-gp (MDR1) [1]; MDCK-MDR1, pH 6)?
A: 16.3 ± 0.8 ×10⁻⁶ cm/s

Q: What about the Papp (P-gp (MDR1) [1]; MDCK-MDR1, pH 7.4) of the same compound?
A: 0.59 ± 0.11 ×10⁻⁶ cm/s

Q: What about the Papp B→A (P-gp (MDR1) [1]; MDCK-MDR1, pH 7.4) of the same compound?
A: 17.8 ± 2.8 ×10⁻⁶ cm/s

Q: And the Papp (P-gp (MDR1) [1]; MDCK-MDR1, pH 8)?
A: 0.72 ± 0.13 ×10⁻⁶ cm/s

Q: And the Papp B→A (P-gp (MDR1) [1]; MDCK-MDR1, pH 8)?
A: 16.3 ± 2 ×10⁻⁶ cm/s

Q: And the Papp (P-gp (MDR1) [1]; MDCK-MDR1, pH 9)?
A: 1.9 ± 0.32 ×10⁻⁶ cm/s

Q: What about the Papp B→A (P-gp (MDR1) [1]; MDCK-MDR1, pH 9) of the same compound?
A: 7.63 ± 1.73 ×10⁻⁶ cm/s

Q: And the “Papp, inhibitor” value (MDCK-MDR1 cells [2]; ref Chang et al. (2006))?
A: 2.04 ×10⁻⁶ cm/s

Q: What about the “Papp, inhibitor” value (MDCK-MDR1 cells [2]; ref Taub et al. (2005)) of the same compound?
A: 1.39 ×10⁻⁶ cm/s

Q: And the “Papp, inhibitor” value (MDCK-MDR1 cells [2]; [9])?
A: 7.5 ×10⁻⁶ cm/s

Q: And the “Papp, inhibitor” value (MDCK-MDR1 cells [2]; ref Wang et al. (2005))?
A: 1 ×10⁻⁶ cm/s

Q: And the “Papp, B⟶A” value (MDCK-MDR1 cells [2]; ref Chang et al. (2006))?
A: 15.2 ×10⁻⁶ cm/s

Q: And the “Papp, B⟶A” value (MDCK-MDR1 cells [2]; ref Taub et al. (2005))?
A: 8.15 ×10⁻⁶ cm/s

Q: And the “Papp, B⟶A” value (MDCK-MDR1 cells [2]; [9])?
A: 35.7 ×10⁻⁶ cm/s

Q: And the “Papp, B⟶A” value (MDCK-MDR1 cells [2]; ref Wang et al. (2005))?
A: 9.75 ×10⁻⁶ cm/s

Q: What about the fn ([3]; neutral fraction at pH 7.4) of the same compound?
A: 100%

Q: What about the Factor difference (MDCK-MDR1 cells [4]; This study, Papp,B⟶A vs Papp with inhibitor) of the same compound?
A: 7

Q: And the Factor difference (MDCK-MDR1 cells [4]; calculated from literature Papp,B⟶A and Papp with inhibitor)?
A: 10 and 6 and 5 and 7

Q: What about the Papp (P-gp (MDR1) [5]) of the same compound?
A: 2.53 ×10⁻⁶ cm/s

Q: What does the source list for `COc1cccc2c1C(=O)c1c(O)c3c(c(O)c1C2=O)C[C@@](O)(C(=O)CO)C[C@@H]3O[C@H]1C[C@H](N)[C@H](O)[C@H](C)O1` [Doxorubicin]?
A: recovery ([6]; MDCK-MDR1, pH 5, with elacridar 2 µM, pH 5, n = 3 (Table S13)): 130%; Papp ([6]; MDCK-MDR1, with elacridar 2 µM, pH 5, three replicates (n = 3) (Table S13)): 0.4 ± 0.1 ×10⁻⁶ cm/s; logPapp, B⟶A (MDCK-II-MDR1 cells; pH 6, iso-pH method): -6.64 P in cm/s; logPapp, B⟶A (MDCK-II-MDR1 cells; pH 7, iso-pH method): -6.11 P in cm/s; logPapp, B⟶A (MDCK-II-MDR1 cells; pH 8, iso-pH method): -5.36 P in cm/s; pKa [7]: 9.56; recovery (in vitro; MDCK-MDR1, pH 5): 94 to 100%; recovery (in vitro; MDCK-MDR1, pH 6): 90 to 96%; recovery (in vitro; MDCK-MDR1, pH 7): 88 to 93%; recovery (in vitro; MDCK-MDR1, pH 8): 64 to 71%; Papp (P-gp (MDR1) [1]; MDCK-MDR1, pH 5): 0.77 ± 0.26 ×10⁻⁶ cm/s; Papp A→B (P-gp (MDR1) [1]; MDCK-MDR1, pH 5): 0.457 ×10⁻⁶ cm/s; Papp B→A (P-gp (MDR1) [1]; MDCK-MDR1, pH 5): 0.46 ± 0.25 ×10⁻⁶ cm/s; Papp (P-gp (MDR1) [1]; MDCK-MDR1, pH 6): 0.16 ± 0.03 ×10⁻⁶ cm/s; Papp B→A (P-gp (MDR1) [1]; MDCK-MDR1, pH 6): 0.23 ± 0.08 ×10⁻⁶ cm/s; Papp (P-gp (MDR1) [1]; MDCK-MDR1, pH 7): 0.13 ± 0.03 ×10⁻⁶ cm/s; Papp B→A (P-gp (MDR1) [1]; MDCK-MDR1, pH 7): 0.78 ± 0.36 ×10⁻⁶ cm/s; Papp (P-gp (MDR1) [1]; MDCK-MDR1, pH 8): 0.17 ± 0.05 ×10⁻⁶ cm/s; Papp B→A (P-gp (MDR1) [1]; MDCK-MDR1, pH 8): 4.4 ± 0.29 ×10⁻⁶ cm/s; fn ([3]; neutral fraction at pH 5): 0.0%
